Measurements: patent publication US20120225849A1, “2-Methoxyestradiol (2-ME2) Prodrug with Enhanced Bioavailability for Prophylaxis or Treatment of Cancerous or Non-Cancerous Condition” (The University of Kansas, priority 2011, published 2012)

Legend:
OE33 xenografts = assay: Growth of Barrett's esophageal adenocarcinoma (BEAC) OE33 xenografts in nude mice; assay type: in vivo; settings: 75 mg/kg/day orogastric feeding, 8 days, versus vehicle control, listed as pro-2-ME2
Method: We injected ˜2.0×10^6 OE33 cells subcutaneously into the left hind leg flank of each nude mice […] for the development of tumor. The mice were divided into two groups (two mice per group) with a control group and Pro-2-ME2 treatment group. After forming palpable tumors, the nude mice bearing xenografts of OE33 cells were given daily pro-2-ME2 doses (75 mg/kg/day) by orogastric feeding or vehicle (control). Pro-2-ME2 was dissolved in 500 μl of saline water. We used 500 μl of saline water as a vehicle control. Tumor growth was monitored for 8 days by measuring two perpendicular diameters twice weekly. Tumor volume was calculated according to the formula V=a×b^2/2, where a and b are the largest and smallest diameters, respectively.

[1] = Rat plasma pharmacokinetics of 2-ME2 after intravenous and oral dosing (cannulated rat model); assay type: in vivo, Sprague Dawley rats; settings: for Bioavailability: AUC through 480 minutes
Method: The main compound of the present invention (2ME2-PD) and the native compound (8R,9S,13S,14S,17S)-2-methoxy-13-methyl-7,8,9,11,12,13,14,15,16,17-decahydro-6H-cyclopenta[a]phenanthren-17-ol (2-ME2) were dissolved independently in 0.1 M Captisol® at concentrations between 10 mg/mL and 21 mg/mL. The solutions were sterile filtered through 0.2 micron filters prior to use.
Animal studies were approved and conducted in accordance with the guidelines of the Institutional Animal Care and Use Committee. A cannulated rat model was used to study the intravenous (iv) and oral absorption 2-ME2 and 2-ME2-PD.
Sprague Dawley rats (male, 250-300 gram, Charles River Laboratories) were implanted with carotid artery, and jugular and/or femoral vein catheters. These studies were automated with the animals connected to the Culex Automated Pharmacology System allowing for direct comparison of pharmacokinetic behavior between the orally and iv administered compounds in the same animal. Following surgery, the animals were connected to the Culex and allowed to recover and acclimate. Fasted animals were dosed intravenously and orally with solutions of 2-ME2-PD in 0.1 M Captisol® (CyDex Pharmaceuticals, Inc) and 2-ME2 parent in 0.2 M HP-13-CD (Sigma-Aldrich).
Oral doses were given via gavage to the animal under light anesthesia. Blood was sampled at times ranging from five to 1440 minutes into heparinized vials stored on the chilled fraction collector, and remained there until sampling was complete. Blood samples were processed to plasma via centrifugation and stored at −80° C. until analysis for 2-ME2-PD, 2-ME2 and associated metabolite concentration by liquid chromatography-mass spectrometry (LC-MS/MS). Bioanalytical methods for the 2-ME2-PD and 2-ME2 analysis were modified from those of Lakhani et. al. Quantitation was made relative to deuterated internal standards.
Pharmacokinetic analysis of the resulting plasma concentration time data was performed using PK Solution software (Summit PK). Results for the studies conducted are illustrated in FIG. 1 and Table II (below). For oral doses of 2-ME2, no compound was found in plasma at all time points studied (<2 ng/mL LOQ). All samples from times greater than 480 minutes had 2-ME2 levels that were below the limit of quantitation.

[2] = Reference 13, cited from earlier work
[3] = oxidation of 2-ME2 at the 17 position; References 3, 13 and 19; cited from earlier work
[4] = plasma 2-ME2, 2-ME2-PD intravenous 10 mg/kg
[5] = plasma 2-ME2, 2-ME2-PD oral 20 mg/kg, average of two animals
[6] = plasma 2-ME2, 2-ME2-PD oral 31.5 mg/kg
[7] = plasma 2-ME2, 2-ME2 intravenous 5.21 mg/kg

In the case of `COc1cc2c(cc1OCOP(=O)([O-])[O-])CC[C@@H]1[C@@H]2CC[C@]2(C)[C@@H](OC(C)=O)CC[C@@H]12.[Na+].[Na+]` [2-ME2-PD, disodium(((8R,9S,13S,14S,17S)-17-acetoxy-2-methoxy-13-methyl-7,8,9,11,12,13,14,15,16,17-decahydro-6H-cyclopenta[a]phenanthren-3-yl)oxy)methyl phosphate], the “growth of OE33 tumor implants (tumor volume)” value (OE33 xenografts) is reported as “significantly inhibited”, the Bioavailability ([1]; 2-ME2-PD intravenous 10 mg/kg, relative to 2ME2 iv and corrected for dose) is reported as 21.8% and the Bioavailability ([1]; 2-ME2-PD oral 20 mg/kg, relative to 2ME2 iv and corrected for dose, average of two animals) is reported as 4.4%. For the same compound, the Bioavailability ([1]; 2-ME2-PD oral 31.5 mg/kg, relative to 2ME2 iv and corrected for dose) was 4.9%, the “absolute bioavailabilities from oral administration” value ([1]; oral 2-ME2 prodrug, 0-480 minutes) was 4-5% and the Cmax [1, 4] was 121 ng/mL. The T1/2 [1, 4] was 4.37 h, the AUCt-480 ([1]; plasma 2-ME2, 2-ME2-PD intravenous 10 mg/kg (corrected dose 6.06 mg/kg)) was 4967 ng·min/mL and the AUCt-480 ([1]; plasma 2-ME2, 2-ME2-PD oral 20 mg/kg (corrected dose 12.13 mg/kg), average of two animals) was 2006 ng·min/mL. For the same compound, the Cmax [1, 5] was 8.4 ng/mL, the T1/2 [1, 5] was 13.4 h and the Cmax [1, 6] was 9.9 ng/mL. The T1/2 [1, 6] was 6.85 h and the AUCt-480 ([1]; plasma 2-ME2, 2-ME2-PD oral 31.5 mg/kg (corrected dose 19.11 mg/kg)) was 3516 ng·min/mL.

For `COc1cc2c(cc1O)CC[C@@H]1[C@@H]2CC[C@]2(C)[C@@H](O)CC[C@@H]12` [2-ME2], the “orally administered dose of 2-ME2 recovered in the urine” value [2] is listed as ~1%, the “fraction of orally administered 2-ME2 dose recovered in the urine as metabolites” value ([2]; metabolites, animal and human studies) is listed as “less than 1%” and the “fraction of orally administered 2-ME2 dose recovered in the urine” value ([2]; unchanged 2-ME2, animal and human studies) is listed as “less than 0.1%”. The Bioavailability ([1]; 2-ME2 intravenous 5.21 mg/kg (reference)) was 100%, the “2-ME2 in plasma at all time points (LOQ)” value ([1]; oral doses of 2-ME2 (5.21 mg/kg), no compound found) was < 2 ng/mL and the AUCt-480 [1, 7] was 19253 ng·min/mL. It also gave a Cmax [1, 7] of 1221 ng/mL and a T1/2 [1, 7] of 0.983 h.

In the case of `COc1cc2c(cc1O)CC[C@@H]1[C@@H]2CC[C@]2(C)C(=O)CC[C@@H]12` [2-methoxyestrone], the “loss in activity in vitro versus 2-ME2” value [3] is listed as 10-to 100 fold.
